Laboratory results from patent publication US9475817B2 (BRISTOL-MYERS SQUIBB COMPANY, priority 2012, dated 2016).

How the values were obtained:
[1] = molecular target: CK1δ (Homo sapiens (Human), UniProt P48730); assay: CK1δ kinase assay (Caliper LabChip, fluoresceinated peptide substrate); assay type: biochemical; details: 200 pM CK1δ, 50 μM ATP, 1.5 μM peptide substrate, 22 hours room temperature
Protocol: (§1) CK1ε and CK1δ Kinase Assays
(§2) The kinase assay was performed in V-bottom 384-well plates. […] The reaction was incubated at room temperature for 22 hours and terminated by adding 45 μl of 35 mM EDTA to each sample. […] Compounds were dissolved at 10 mM in dimethylsulfoxide (DMSO) and evaluated at eleven concentrations. IC50 values were derived by non-linear regression analysis.

[2] = molecular target: CK1ε (Homo sapiens (Human), UniProt P49674); assay: CK1ε kinase assay (Caliper LabChip, fluoresceinated peptide substrate); assay type: biochemical; details: 200 pM CK1ε, 50 μM ATP, 1.5 μM peptide substrate, 22 hours room temperature
Protocol: as §1, §2

Chain of CK1δ (P48730 whole entry): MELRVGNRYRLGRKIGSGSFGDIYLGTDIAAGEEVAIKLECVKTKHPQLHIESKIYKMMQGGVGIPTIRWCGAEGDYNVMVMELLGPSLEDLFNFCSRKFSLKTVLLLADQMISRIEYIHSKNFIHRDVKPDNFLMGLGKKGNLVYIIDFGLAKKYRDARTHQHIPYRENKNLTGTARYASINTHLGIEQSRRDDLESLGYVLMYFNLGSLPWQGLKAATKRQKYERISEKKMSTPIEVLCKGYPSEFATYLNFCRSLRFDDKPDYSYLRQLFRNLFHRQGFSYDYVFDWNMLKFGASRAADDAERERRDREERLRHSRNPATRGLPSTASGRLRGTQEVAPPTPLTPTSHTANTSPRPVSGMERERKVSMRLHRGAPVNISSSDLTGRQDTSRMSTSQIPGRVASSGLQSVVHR
Chain of CK1ε (P49674 whole entry): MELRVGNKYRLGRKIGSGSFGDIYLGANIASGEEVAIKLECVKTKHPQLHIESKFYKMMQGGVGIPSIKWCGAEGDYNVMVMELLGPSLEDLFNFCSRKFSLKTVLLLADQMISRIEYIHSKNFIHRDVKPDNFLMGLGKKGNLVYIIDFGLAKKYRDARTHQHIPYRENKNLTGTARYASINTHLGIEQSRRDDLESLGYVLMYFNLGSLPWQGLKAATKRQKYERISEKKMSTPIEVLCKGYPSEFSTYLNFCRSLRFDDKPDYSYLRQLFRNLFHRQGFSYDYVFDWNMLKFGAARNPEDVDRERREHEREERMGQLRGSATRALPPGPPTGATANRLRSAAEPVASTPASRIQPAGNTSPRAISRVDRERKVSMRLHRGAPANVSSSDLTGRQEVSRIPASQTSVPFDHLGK

Compound | IC50 [1] | IC50 [2]
Cc1nc(-c2ccccn2)sc1C(=O)Nc1cn2nc(-c3cn(C4CC4)nc3-c3ccc(F)cc3)ccc2n1 [Compound 110, N-(6-(1-cyclopropyl-3-(4-fluorophenyl)-1H-pyrazol-4-yl)imidazo[1,2-b]pyridazin-2-yl)-4-methyl-2-(pyridin-2-yl)thiazole-5-carboxamide] | 5.5 nM | 28.8 nM
Cn1nc(-c2ccc(F)cc2)c(-c2ccc3nc(NC(=O)c4ccnc(N)c4)cn3n2)c1N1CCN(Cc2ccon2)CC1 [Compound 142, 2-Amino-N-(6-(3-(4-fluorophenyl)-5-(4-(isoxazol-3-ylmethyl)piperazin-1-yl)-1-methyl-1H-pyrazol-4-yl)imidazo[1,2-b]pyridazin-2-yl)isonicotinamide] | 0.3 nM | 2.2 nM
Cn1cc(-c2ccc3nc(NC(=O)c4ccc(-n5cccn5)nc4)cn3n2)c(-c2ccc(F)cc2)n1 [Compound 71, N-(6-(3-(4-fluorophenyl)-1-methyl-1H-pyrazol-4-yl)imidazo[1,2-b]pyridazin-2-yl)-6-(1H-pyrazol-1-yl)nicotinamide] | 3.8 nM | 17.3 nM
Cn1nc(-c2ccc(F)cc2)c(-c2ccc3nc(NC(=O)c4ccncc4)cn3n2)c1C1CCNCC1 [Compound 164, N-(6-(3-(4-Fluorophenyl)-1-methyl-5-(piperidin-4-yl)-1H-pyrazol-4-yl)imidazo[1,2-b]pyridazin-2-yl)isonicotinamide] | 0.9 nM | 3.3 nM
COc1ccncc1C(=O)Nc1cn2nc(-c3cn(C)nc3-c3ccc(F)cc3)ccc2n1 [Compound 64, N-(6-(3-(4-fluorophenyl)-1-methyl-1H-pyrazol-4-yl)imidazo[1,2-b]pyridazin-2-yl)-4-methoxynicotinamide] | 7.1 nM | 38.5 nM
Cn1cc(-c2ccc3nc(NC(=O)c4ccnc(F)c4)cn3n2)c(-c2ccc(F)cc2)n1 [Compound 54, 2-fluoro-N-(6-(3-(4-fluorophenyl)-1-methyl-1H-pyrazol-4-yl)imidazo[1,2-b]pyridazin-2-yl)isonicotinamide] | 4.5 nM | 14 nM
Cn1cc(-c2ccc3nc(NC(=O)c4cccc(F)c4)cn3n2)c(-c2ccc(F)cc2)n1 [Compound 23, 3-fluoro-N-(6-(3-(4-fluorophenyl)-1-methyl-1H-pyrazol-4-yl)imidazo[1,2-b]pyridazin-2-yl)benzamide] | 2.6 nM | 8.6 nM
Cn1nc(-c2ccc(F)cc2)c(-c2ccc3nc(NC(=O)c4ccnc(N5CCOCC5)c4)cn3n2)c1N1CCN(CCC(F)(F)F)CC1 [Compound 135, N-(6-(3-(4-Fluorophenyl)-1-methyl-5-(4-(3,3,3-trifluoropropyl)piperazin-1-yl)-1H-pyrazol-4-yl)imidazo[1,2-b]pyridazin-2-yl)-2-morpholinoisonicotinamide] | 1.6 nM | 35 nM
Cn1cc(-c2ccc3nc(NC(=O)c4ccc(F)cc4)cn3n2)c(-c2ccc(F)cc2)n1 [Compound 62, 4-fluoro-N-(6-(3-(4-fluorophenyl)-1-methyl-1H-pyrazol-4-yl)imidazo[1,2-b]pyridazin-2-yl)benzamide] | 7.2 nM | 28.1 nM
Cn1nc(-c2ccc(F)cc2)c(-c2ccc3nc(NC(=O)c4ccnc(F)c4)cn3n2)c1C1CCOCC1 [Compound 196, 2-Fluoro-N-(6-(3-(4-fluorophenyl)-1-methyl-5-(tetrahydro-2H-pyran-4-yl)-1H-pyrazol-4-yl)imidazo[1,2-b]pyridazin-2-yl)isonicotinamide] | 0.2 nM | 2 nM
Cn1nc(-c2ccc(F)cc2)c(-c2ccc3nc(NC(=O)c4ccncc4)cn3n2)c1C1CCN(CCO)CC1 [Compound 168, N-(6-(3-(4-fluorophenyl)-5-(1-(2-hydroxyethyl)piperidin-4-yl)-1-methyl-1H-pyrazol-4-yl)imidazo[1,2-b]pyridazin-2-yl)isonicotinamide] | 1.3 nM | 1.5 nM
Cn1cc(-c2ccc3nc(NC(=O)c4ccno4)cn3n2)c(-c2ccc(F)cc2)n1 [Compound 22, N-(6-(3-(4-fluorophenyl)-1-methyl-1H-pyrazol-4-yl)imidazo[1,2-b]pyridazin-2-yl)isoxazole-5-carboxamide] | 3.7 nM | 15.2 nM
Cn1cc(-c2ccc3nc(NC(=O)CC(F)(F)F)cn3n2)c(-c2ccc(F)cc2)n1 [Compound 99, 3,3,3-trifluoro-N-(6-(3-(4-fluorophenyl)-1-methyl-1H-pyrazol-4-yl)imidazo[1,2-b]pyridazin-2-yl)propanamide] | 10.3 nM | 47.3 nM
Cc1ncccc1C(=O)Nc1cn2nc(-c3cn(C)nc3-c3ccc(F)cc3)ccc2n1 [Compound 78, N-(6-(3-(4-fluorophenyl)-1-methyl-1H-pyrazol-4-yl)imidazo[1,2-b]pyridazin-2-yl)-2-methylnicotinamide] | 3.3 nM | 11 nM
Cn1nc(-c2ccc(F)cc2)c(-c2ccc3nc(NC(=O)c4ccnc(F)c4)cn3n2)c1C1CCN(C(=O)c2ccon2)CC1 [Compound 153, 2-fluoro-N-(6-(3-(4-fluorophenyl)-5-(1-(isoxazole-3-carbonyl)piperidin-4-yl)-1-methyl-1H-pyrazol-4-yl)imidazo[1,2-b]pyridazin-2-yl)isonicotinamide] | 0.3 nM | 2.2 nM
Cn1cc(-c2ccc3nc(NC(=O)c4ccc(C(F)(F)F)cn4)cn3n2)c(-c2ccc(F)cc2)n1 [Compound 74, N-(6-(3-(4-fluorophenyl)-1-methyl-1H-pyrazol-4-yl)imidazo[1,2-b]pyridazin-2-yl)-5-(trifluoromethyl) picolinamide] | 34.6 nM | 232 nM
Cn1nc(-c2ccc(F)cc2)c(-c2ccc3nc(NC(=O)c4ccnc(F)c4)cn3n2)c1N1CCN(C[C@@H](O)C(F)(F)F)CC1 [Compound 127, (R)-2-Fluoro-N-(6-(3-(4-fluorophenyl)-1-methyl-5-(4-(3,3,3-trifluoro-2-hydroxypropyl)piperazin-1-yl)-1H-pyrazol-4-yl)imidazo[1,2-b]pyridazin-2-yl)isonicotinamide] | 1 nM | 6.2 nM
Cn1nc(-c2ccc(F)cc2)c(-c2ccc3nc(NC(=O)c4ccnc(F)c4)cn3n2)c1C1CCN(C(=O)c2cncs2)CC1 [Compound 154, 2-fluoro-N-(6-(3-(4-fluorophenyl)-1-methyl-5-(1-(thiazole-5-carbonyl)piperidin-4-yl)-1H-pyrazol-4-yl)imidazo[1,2-b]pyridazin-2-yl)isonicotinamide] | 0.3 nM | 0.3 nM
Cn1nc(-c2ccc(F)cc2)c(-c2ccc3nc(NC(=O)c4ccncc4)cn3n2)c1N1CCN(C(=O)CC(F)(F)F)CC1 [Compound 132, N-(6-(3-(4-Fluorophenyl)-1-methyl-5-(4-(3,3,3-trifluoropropanoyl)piperazin-1-yl)-1H-pyrazol-4-yl)imidazo[1,2-b]pyridazin-2-yl)isonicotinamide] | 0.6 nM | 6.7 nM
Cc1nc(-c2ccncc2)sc1C(=O)Nc1cn2nc(-c3c(-c4ccc(F)cc4)nn(C)c3C3CCN(Cc4ccon4)CC3)ccc2n1 [Compound 182, N-(6-(3-(4-fluorophenyl)-5-(1-(isoxazol-3-ylmethyl)piperidin-4-yl)-1-methyl-1H-pyrazol-4-yl)imidazo [1,2-b]pyridazin-2-yl)-4-methyl-2-(pyridin-4-yl)thiazole-5-carboxamide] | 1.7 nM | 0.9 nM
Cn1nc(-c2ccc(F)cc2)c(-c2ccc3nc(NC(=O)c4ccncc4)cn3n2)c1C1CCN(Cc2cc[nH]n2)CC1 [Compound 170, N-(6-(5-(1-((1H-pyrazol-3-yl)methyl)piperidin-4-yl)-3-(4-fluorophenyl)-1-methyl-1H-pyrazol-4-yl)imidazo[1,2-b]pyridazin-2-yl) isonicotinamide] | 2.6 nM | 7.4 nM
Cn1nc(-c2ccc(F)cc2)c(-c2ccc3nc(NC(=O)c4ccnc(N5CCOCC5)c4)cn3n2)c1N1CCN(C(=O)CC(F)(F)F)CC1 [Compound 138, N-(6-(3-(4-Fluorophenyl)-1-methyl-5-(4-(3,3,3-trifluoropropanoyl)piperazin-1-yl)-1H-pyrazol-4-yl)imidazo[1,2-b]pyridazin-2-yl)-2-morpholinoisonicotinamide] | 1.6 nM | 9.3 nM
Cn1cc(-c2ccc3nc(NC(=O)OCc4ccccc4)cn3n2)c(-c2ccc(F)cc2)n1 [Compound 187, Benzyl 6-(3-(4-fluorophenyl)-1-methyl-1H-pyrazol-4-yl)imidazo[1,2-b]pyridazin-2-ylcarbamate] | 51.5 nM | > 2000 nM
Cn1nc(-c2ccc(F)cc2)c(-c2ccc3nc(NC(=O)c4ccnc(F)c4)cn3n2)c1N1CCN(CC(N)=O)CC1 [Compound 124, N-(6-(5-(4-(2-Amino-2-oxoethyl)piperazin-1-yl)-3-(4-fluorophenyl)-1-methyl-1H-pyrazol-4-yl)imidazo[1,2-b]pyridazin-2-yl)-2-fluoroisonicotinamide] | 0.2 nM | 1.3 nM
Cn1cc(-c2ccc3nc(NC(=O)c4cnn(C)c4Cl)cn3n2)c(-c2ccc(F)cc2)n1 [Compound 60, 5-chloro-N-(6-(3-(4-fluorophenyl)-1-methyl-1H-pyrazol-4-yl)imidazo[1,2-b]pyridazin-2-yl)-1-methyl-1H-pyrazole-4-carboxamide] | 5.5 nM | 13.1 nM
COc1c(F)cc(C(=O)Nc2cn3nc(-c4cn(C)nc4-c4ccc(F)cc4)ccc3n2)cc1F [Compound 61, 3,5-difluoro-N-(6-(3-(4-fluorophenyl)-1-methyl-1H-pyrazol-4-yl)imidazo[1,2-b]pyridazin-2-yl)-4-methoxybenzamide] | 5.7 nM | 18.7 nM
COc1ccc(F)c(C(=O)Nc2cn3nc(-c4cn(C)nc4-c4ccc(F)cc4)ccc3n2)c1 [Compound 44, 2-fluoro-N-(6-(3-(4-fluorophenyl)-1-methyl-1H-pyrazol-4-yl)imidazo[1,2-b]pyridazin-2-yl)-5-methoxybenzamide] | 5.6 nM | 21.2 nM
